The values that follow come from ChEMBL document CHEMBL4406848, “Novel water soluble BODIPY compounds: Synthesis, photochemical, DNA interaction, topoisomerases inhibition and photodynamic activity properties” (Eur J Med Chem, 2019).

Molecules are shown by their SMILES.

Assay [1] concerns HCT-116. The experiment in a line: Induction of apoptosis in human HCT116 cells assessed as early apoptotic cells at 5 uM incubated for 24 hrs in presence of irradiation by annexin V FITC and propidium iodide based flow cytometry (reference value: 3.4 %). The format is functional.
For assay [2], the system named is HCT-116. Nature of the assay: Induction of apoptosis in human HCT116 cells assessed as late apoptotic cells at 50 uM incubated for 24 hrs in presence of irradiation by annexin V FITC and propidium iodide based flow cytometry (reference value: 1.6 %). The format is functional. For orientation: In flow cytometry, cells or beads pass a laser one at a time.

Take `CC1=CC(/C=C/c2ccc(OCCCc3ccc[n+](C)c3)cc2)=[N+]2C1=C(c1ccc(OCCCc3ccc[n+](C)c3)cc1)c1c(C)cc(/C=C/c3ccc(OCCCc4ccc[n+](C)c4)cc3)n1[B-]2(F)F.[I-].[I-].[I-]`: the Activity in assay [1] was 35.8%.

In the case of `CC1=CC(/C=C/c2ccc(OCCCc3ccc[n+](C)c3)c(OCCCc3ccc[n+](C)c3)c2)=[N+]2C1=C(c1ccc(OCCCc3ccc[n+](C)c3)c(OCCCc3ccc[n+](C)c3)c1)c1c(C)cc(/C=C/c3ccc(OCCCc4ccc[n+](C)c4)c(OCCCc4ccc[n+](C)c4)c3)n1[B-]2(F)F.[I-].[I-].[I-].[I-].[I-].[I-]`, the Activity in assay [2] amounted to 1.4%.
